Test results from PubChem BioAssay (NCI).
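Compound exposure: 48 hours, 5 concentrations, 96-well plates. TGI is the concentration that stops growth completely.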

What was measured:
Assay in all cases: NCI tumour cell line growth inhibition, 48 h
[1] = tested on: HCT-15 colon
[2] = tested on: T-47D breast
[3] = tested on: OVCAR-3 ovarian
[4] = tested on: NCI-H522 lung
[5] = tested on: MDA-N
[6] = tested on: DU-145 prostate
[7] = tested on: SK-OV-3 ovarian
[8] = tested on: MOLT-4 leukemia
[9] = tested on: SK-MEL-28 melanoma
[10] = tested on: U251 CNS
[11] = tested on: NCI/ADR-RES ovarian
[12] = tested on: CCRF-CEM leukemia
[13] = tested on: HS 578T breast
[14] = tested on: SF-295 CNS
[15] = tested on: UO-31 renal
[16] = tested on: ACHN renal
[17] = tested on: OVCAR-4 ovarian
[18] = tested on: SW-620 colon
[19] = tested on: HOP-62 NSCLC
[20] = tested on: SF-268 CNS

| SMILES | TGI [1] [µM] | TGI [2] [µM] | TGI [3] [µM] | TGI [4] [µM] | TGI [5] [µM] | TGI [6] [µM] | TGI [7] [µM] | TGI [8] [µM] | TGI [9] [µM] | TGI [10] [µM] | TGI [11] [µM] | TGI [12] [µM] | TGI [13] [µM] | TGI [14] [µM] | TGI [15] [µM] | TGI [16] [µM] | TGI [17] [µM] | TGI [18] [µM] | TGI [19] [µM] | TGI [20] [µM] |
| --- | --- | --- | --- | --- | --- | --- | --- | --- | --- | --- | --- | --- | --- | --- | --- | --- | --- | --- | --- | --- |
| COC(=O)C1=C(C)C(=O)[C@]23C(CCCC[C@H]12)C(=O)[C@H](C(=O)OC)C3C (stereo not given in full) | > 100 | > 100 | > 100 | > 100 | > 100 | > 100 | > 100 | > 100 | > 100 | > 100 | > 100 | > 100 | > 100 | > 100 | > 100 | > 100 | > 100 | > 100 | > 100 | > 100 |
| Fc1ccc(C(OCCN2CCN(CCCCl)CC2)c2ccc(F)cc2)cc1 | 33.8 | 52.5 | 74.9 | 36.8 | 45 | 73.7 | > 100 | > 100 | > 100 | > 100 | 70.8 | > 100 | 83.8 | 58.1 | > 100 | > 100 | 81.5 | > 100 | > 100 | 77.5 |
| O=C1N=C(SC(SC2=NC(=O)C3(NN2)c2ccccc2-c2ccccc23)=C(SC2=NC(=O)C3(NN2)c2ccccc2-c2ccccc23)SC2=NC(=O)C3(NN2)c2ccccc2-c2ccccc23)NNC12c1ccccc1-c1ccccc12 | > 10 | > 10 |  | > 10 | > 10 | > 10 | > 10 | 2.95 | > 10 |  | > 10 | > 10 | > 10 | > 10 | > 10 | 9.09 | > 10 | > 10 | > 10 | > 10 |
| CCCCCC(C/C=N/N(C)C)C(O)(C(F)(F)F)C(F)(F)F (stereo not given) | > 100 | > 100 | 66.1 | > 100 | > 100 | > 100 | > 100 | > 100 | > 100 | > 100 | > 100 | 62.7 | 91.8 | > 100 | > 100 | 52.7 | > 100 | > 100 | > 100 | > 100 |
| Cc1cc2c(cc1Cl)SC(NNC(=O)c1ccco1)=NS2(=O)=O | > 10 | > 10 | > 10 | > 10 | > 10 | > 10 | > 10 | > 10 | > 10 | > 10 | > 10 | > 10 | > 10 | > 10 | > 10 | > 10 | > 10 | > 10 | > 10 | > 10 |
| COC(=O)C(Cc1ccccc1)NP(=O)(O)OCC1OC(n2cc(Br)c(=O)[nH]c2=O)CC1O (stereo not given) | > 100 | > 100 | > 100 | > 100 | > 100 | > 100 | > 100 | > 100 | > 100 | > 100 | > 100 | > 100 | > 100 | > 100 | > 100 | > 100 | > 100 | > 100 | > 100 | > 100 |
| C[C@]12CC[C@@H]3c4ccc(O)cc4CC[C@H]3[C@@H]1CC[C@@H]2OP(=O)(O)O | > 100 | > 100 | > 100 | > 100 | > 100 | > 100 | > 100 | > 100 | > 100 | > 100 | > 100 | > 100 | > 100 | > 100 | > 100 | > 100 | > 100 | > 100 | > 100 | > 100 |
| CN(C)CCCNC(=O)c1c(O)c2ccccc2[nH]c1=O | > 100 | > 100 | > 100 | > 100 | > 100 | > 100 | > 100 | > 100 | > 100 |  | > 100 | > 100 | > 100 | > 100 | 58.6 | > 100 | > 100 | > 100 | > 100 | > 100 |
| Cn1c(=O)c2c(nc3n(CCCCl)c(=O)ccn23)n(C)c1=O | > 100 | > 100 | > 100 | > 100 | > 100 | > 100 | > 100 | > 100 | > 100 | > 100 | > 100 | > 100 | > 100 | > 100 | > 100 | > 100 | > 100 | > 100 | > 100 | > 100 |
| O=c1[nH]nc(-c2ccccc2)n1Nc1ccccc1 | > 100 | > 100 | > 100 | > 100 | > 100 | > 100 | > 100 | > 100 | > 100 | > 100 | > 100 | > 100 | > 100 | > 100 | > 100 | > 100 | > 100 | > 100 |  | > 100 |
| CC(CC[C@@H](O)C(C)(C)O)C1[C@@H](O)CC2(C)C3CC(O)C4C(C)(C)[C@@H](OC5OC(CO)C(O)C(O)C5O)CC[C@@]45C[C@@]35CC[C@]12C (stereo not given in full) | > 10 | > 10 | > 10 | > 10 | > 10 | > 10 | > 10 | > 10 | > 10 | > 10 | > 10 | > 10 | > 10 | > 10 |  | > 10 | > 10 | > 10 | > 10 | > 10 |
| CC1(C)C2C=C(CCN3CCOCC3)CC1C2 (stereo not given) | > 100 | > 100 | > 100 | > 100 | > 100 | > 100 | > 100 | > 100 | > 100 | > 100 | > 100 | > 100 | > 100 | > 100 | > 100 | > 100 | > 100 | > 100 | > 100 | > 100 |
